From patent US9316632B2, “Methods of screening chemotherapeutic agents and treating cancer” (Marshall University Research Corporation, priority 2009, dated 2016)

Key:
[1] = system: ependymoma cells grown in a monolayer (bulk cancer cells); assay: MTT chemosensitivity assay, bulk cancer cells of the Example 1 ependymoma sample; format: cell-based, human; settings: 1-hour pulse, MTT 24-hours after treatment, FIG. 5
Description: Single Cell Suspension and Primary Cell Culture. Single-cell suspensions from the ependymoma biopsy was prepared using the gentleMACS™ Dissociator (Miltenyi, Auburn, Calif.), and C Tubes using a standardized, semi-automated protocol based on a combination of mechanical tissue disruption and incubation with a 50% solution 0.025% trypsin and Accutase (Innovative Cell Technologies, San Diego, Calif.). Cells were serially plated in 24-well, 12-well, 6-well, 10-cm treated dishes and cultured to subconfluence in RPMI-1640 medium supplemented with 5% irradiated, heat inactivated, defined fetal bovine serum (Thermofisher/Hyclone), and 50 U of penicillin and 5 μg of streptomycin/mL of medium (Thermofisher/Mediatech).
(§1) Chemosensitivity assay. Sensitivity and resistance to chemotherapy was assessed using an MTT assay on 1×10^3 cells plated in 5 replicas into 96-well plates. Briefly, equal number of bulk of tumor cells grown in monolayer and cancer stem-like cells CD133(+) three-dimensionally grown in the bioreactor, were plated separately in 96-well dishes and incubated at 37° C. for 24-hours. Then the cells were challenged for a 1-hour pulse with a panel of anticancer drugs as indicated by the oncologist. Each anticancer drug was tested in a range of doses including the clinically relevant dose. An MTT assay was performed 24-hours following chemotherapy treatment to assess cell viability as previously described. A dose response chart was developed in which samples were scored as responsive (60-100% cell kill), moderately responsive (40-60% cell kill), low to moderate responsive (20-40% cell kill), low responsive (10-20% cell kill), and non-responsive (0-10% cell kill).
(§2) To assess the efficacy of various chemotherapeutic agents on the cancer cell sample collected in Example 2, an MTT assay was performed on […] plated in 5 replicas into 96-well plates. Briefly, equal number of the bulk cancer cells grown in a monolayer and the CD133(+) cancer stem-like cells grown in the HFB were plated separately in 96-well dishes and incubated at 37° C. for 24-hours. Then, each of the cell cultures were challenged for a 1-hour pulse with various chemotherapeutic agents, including cisplatin, oxaliplatin, arabinoside-C, VP-16, busulfan, methotrexate, CPT-11, and doxorubicin. Each chemotherapeutic agent was tested in a range of doses including their respective clinically relevant doses.
The MTT assay was then performed 24-hours following the chemotherapy treatment to assess cell viability. A dose response chart was developed in which samples were scored as responsive (60-100% cell kill), moderately responsive (40-60% cell kill), low to moderate responsive (20-40% cell kill), low responsive (10-20% cell kill), and non-responsive (0-10% cell kill). This assessment was independently performed for both the bulk cancer cells and the cancer stem-like cells of the ependymoma cancer cell sample.

[2] = system: CD133(+) cancer stem-like cells grown in the HFB (ependymoma); assay: MTT chemosensitivity assay, cancer stem-like cells of the Example 1 ependymoma sample; format: cell-based, human; settings: 1-hour pulse, MTT 24-hours after treatment, FIG. 5
Description: (§3) Three-Dimensional Bioreactor Cell Culture. A hydrodynamic focusing bioreactor (HFB) (Celdyne, Houston Tex.) was used as previously described to proliferate cancer stem-like cells. Culture media, oxygenation, speed, temperature and CO2 were kept consistently constant for ten days. In certain instances, cancer stem-like cells were cultured in the HFB and exposed for 2 to 6 hours with ozone (O3) levels at levels of 0.08 to 0.40 PPM to cause a fluctuation in the cellular redox environment (redox cycle). Ozone was generated with two OREC Model OZONEV1-O ozonizers (Ozone Research and Equipment Corp., Phoenix, Ariz.), with compressed air used as a source of oxygen, and the concentration of ozone within the chambers was monitored throughout the exposure with three Dasibi 1003 AH ambient-air ozone monitors (Dasibi Environmental Corp., Glendale, Calif.). Cells were then counted and 1×10^6 cells were placed in the rotating vessel set at 25 rpm with airflow set at 20% for […]. Cells were then removed and counted again using trypan blue exclusion to determine cellular viability and cell number and plated in 96 wells for chemosensitivity testing. The cells were also reacted with florescent antibodies for phenotypic characterization.
as §1
To then expand the immature cancer stem-like cell population of CD 133+ cells present within the ependymoma primary culture, the ependymoma cells were grown in a rotating vessel, as previously described. Briefly, 1×10^6 of the ependymoma cells from a monolayer culture were grown for ten days using a Hydrodynamic Focusing Bioreactor (HFB) (Celdyne, Houston, Tex.) at 25 rpm with airflow set at 20%, and culture media, oxygenation, speed, temperature and CO2 were kept consistently constant for ten day period. Following the ten day period, cells were then removed and counted again from the HFB, and trypan blue exclusion was used to determine cellular viability and cell number. The cells were also reacted with florescent antibodies for phenotypic characterization.
as §2

[3] = system: bulk cancer cells (anaplastic ependymoma, WHO grade III); assay: MTT assay, bulk cancer cells, Example 2 anaplastic ependymoma; format: cell-based, human; settings: FIG. 9
Description: as §1
(§4) Similar to the experiments described herein above, the cancer cell sample was initially cultured as a suspension and the cancer cells were immunophenotyped by flow cytometer using anti-CD133 (Milteny Biotech, Auburn, Calif.), -CD34 (Milteny Biotech, Auburn, Calif.), -CD38 (Milteny Biotech, Auburn, Calif.), -CD44 (BD Bioscience, Sparks, Md.), -CD24 (Milteny Biotech, Auburn, Calif.), -CXCR4 (Milteny Biotech, Auburn, Calif.), -OCT3/4 (BD Bioscience, Sparks, Md.), and -Nanog (BD Bioscience, Sparks, Md.).
(§5) Then, to then expand the immature cancer stem-like cell population of CD133+ cells present within the ependymoma primary culture, the ependymoma cells were grown in a rotating vessel, as describe herein above and as previously described. To assess the efficacy of various chemotherapeutic agents on the cancer cell sample, an MTT assay was the performed as also described herein.

[4] = system: cancer stem-like cells (anaplastic ependymoma, WHO grade III); assay: MTT assay, cancer stem-like cells, Example 2 anaplastic ependymoma; format: cell-based, human; settings: FIG. 9
Description: as §3, §1, §4, §5

[5] = system: bulk cancer cells (IDH-1 negative glioblastoma); assay: MTT assay, bulk cancer cells, Example 3 IDH-1 negative glioblastoma; format: cell-based, human; settings: FIG. 11
Description: as §1

[6] = system: cancer stem-like cells (IDH-1 negative glioblastoma); assay: MTT assay, cancer stem-like cells, Example 3 IDH-1 negative glioblastoma; format: cell-based, human; settings: at the concentration tested, FIG. 11
Description: as §3
(§6) Chemosensitivity assay. Sensitivity and resistance to chemotherapy was assessed using an MTT assay on 1×10^3 cells plated in 5 replicas into 96-well plates. […]

[7] = system: bulk cancer cells (IDH-1 negative glioblastoma, WHO grade IV); assay: MTT assay, bulk cancer cells, Example 4 IDH-1 negative glioblastoma; format: cell-based, human; settings: FIG. 13
Description: as §1

[8] = system: cancer stem-like cells (IDH-1 negative glioblastoma, WHO grade IV); assay: MTT assay, cancer stem-like cells, Example 4 IDH-1 negative glioblastoma; format: cell-based, human; settings: FIG. 13
Description: as §3, §6

[9] = system: intradural, extramedullary anaplastic diffuse spinal ependymoma, WHO grade III; assay: Clinical course of the Example 1 subject under treatment; format: in vivo, human; settings: recurring spinal ependymoma
[10] = system: bulk cancer cells (reoccurrence of anaplastic ependymoma); assay: MTT assay, bulk cancer cells from the reoccurrence of the Example 1 ependymoma; format: cell-based, human; settings: reoccurrence biopsy, FIG. 6
Description: as §1

[11] = system: cancer stem-like cells (reoccurrence of anaplastic ependymoma); assay: MTT assay, cancer stem-like cells from the reoccurrence of the Example 1 ependymoma; format: cell-based, human; settings: reoccurrence biopsy, FIG. 6
Description: as §3, §6

medulloblastoma cells = assay: MTT assay, Example 5 medulloblastoma cells; format: cell-based, human; settings: FIG. 15
Description: as §1

Compound	sensitivity to chemotherapy (MTT cell viability) [1]	sensitivity to chemotherapy (MTT cell viability) [2]	sensitivity to chemotherapy (MTT cell viability) [3]	sensitivity to chemotherapy (MTT cell viability) [4]	further results
CN(Cc1cnc2nc(N)nc(N)c2n1)c1ccc(C(=O)N[C@@H](CCC(=O)O)C(=O)O)cc1 [methotrexate]	minimally to moderately responsive	minimally to moderately responsive	–	–	–
N.N.[Cl][Pt][Cl] [cisplatin]	sensitive	moderate chemosensitivity	–	–	cell kill [3]: 30%; cell kill [4]: 30%
O=NN(CCCl)C(=O)NC1CCCCC1 [lomustine]	–	–	not sensitive	not sensitive	–
Nc1ccn([C@@H]2O[C@H](CO)[C@@H](O)[C@@H]2O)c(=O)n1 [arabinoside-C]	completely not responsive	completely not responsive	–	–	–
CCc1c2c(nc3ccc(OC(=O)N4CCC(N5CCCCC5)CC4)cc13)-c1cc3c(c(=O)n1C2)COC(=O)[C@]3(O)CC [CPT-11, irinotecan]	sensitive	moderate chemosensitivity	not sensitive	not sensitive	–
Cn1nnc2c(C(N)=O)ncn2c1=O [temozolomide]	–	–	–	–	cell kill [5]: 50%; response score (MTT cell viability) [6]: non-responsive (non-responsive (0-10% cell kill)); cell kill [7]: 60%; cell kill [8]: 60%; clinical response of the tumor to treatment [9]: no response
bevacizumab	–	–	not sensitive	not sensitive	–
CS(=O)(=O)OCCCCOS(C)(=O)=O [busulfan]	minimally to moderately responsive	minimally to moderately responsive	–	–	–
O=C1[O][Pt]2([NH][C@@H]3CCCC[C@H]3[NH]2)[O]C1=O [oxaliplatin]	completely not responsive	completely not responsive	not sensitive	not sensitive	–
CNNCc1ccc(C(=O)NC(C)C)cc1 [procarbazine]	–	–	–	–	cell kill [3]: 30%; cell kill [4]: 30%
S=C=NCc1ccccc1 [BITC, benzyl isothiocyanate]	–	–	not sensitive	not sensitive	sensitivity to chemotherapy (MTT cell viability) [10]: sensitive; sensitivity to chemotherapy (MTT cell viability) [11]: sensitive
COc1cccc2c1C(=O)c1c(O)c3c(c(O)c1C2=O)C[C@@](O)(C(=O)CO)C[C@@H]3O[C@H]1C[C@H](N)[C@H](O)[C@H](C)O1 [doxorubicin]	sensitive	highly sensitive	–	–	–
COc1cc([C@@H]2c3cc4c(cc3[C@@H](O[C@@H]3O[C@@H]5CO[C@@H](C)O[C@H]5[C@H](O)[C@H]3O)[C@H]3COC(=O)[C@H]23)OCO4)cc(OC)c1O [VP-16, etoposide]	completely not responsive	completely not responsive	–	–	effectiveness at treating the medulloblastoma cells (MTT) (medulloblastoma cells): effective
